Assay results: PubChem BioAssay AID330 (DTP/NCI, 2004)
Several values for one entry are separate records, joined by “and”; a condition that tells them apart may be missing. Identical values can stand only once. Toxic doses and inconclusive results are not listed. How the source made its calls: active means survival T/C of 150% or more; inactive means T/C below 125% in these data.

System: P388 leukemia ip, CD2F1 mice, survival T/C
Assay: NCI In Vivo Anticancer Drug Screen. Data for tumor model P388 Leukemia (intraperitoneal) in CD2F1 (CDF1) mice
Details: endpoint: median survival time, higher = longer survival
Procedure, shortened: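 Mice carrying the transplanted tumor received test compound or vehicle. Survival was recorded in each group, and the value is the treated-group measurement divided by that of the vehicle-treated control group.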

[1] = dose: 12.5 mg/kg/injection, schedule: Q01DX005 (ip), vehicle: Klucel (hydroxypropylcellulose) (HPC)
[2] = dose: 25.0 mg/kg/injection, schedule: Q01DX005 (ip), vehicle: Klucel (hydroxypropylcellulose) (HPC)
[3] = dose: 50.0 mg/kg/injection, schedule: Q01DX005 (ip), vehicle: Klucel (hydroxypropylcellulose) (HPC)
[4] = dose: 100.0 mg/kg/injection, schedule: Q01DX005 (ip), vehicle: Klucel (hydroxypropylcellulose) (HPC)
[5] = dose: 200.0 mg/kg/injection, schedule: Q01DX005 (ip), vehicle: Klucel (hydroxypropylcellulose) (HPC)
[6] = dose: 50.0 mg/kg/injection, schedule: Q01DX001 (ip), vehicle: Klucel (hydroxypropylcellulose) (HPC)
[7] = dose: 100.0 mg/kg/injection, schedule: Q01DX001 (ip), vehicle: Klucel (hydroxypropylcellulose) (HPC)
[8] = dose: 200.0 mg/kg/injection, schedule: Q01DX001 (ip), vehicle: Klucel (hydroxypropylcellulose) (HPC)
[9] = dose: 50.0 mg/kg/injection, schedule: Q01DX009 (ip), vehicle: saline
[10] = dose: 60.0 mg/kg/injection, schedule: Q01DX005 (ip), vehicle: saline with Tween-80
[11] = dose: 120.0 mg/kg/injection, schedule: Q01DX005 (ip), vehicle: saline with Tween-80
[12] = dose: 240.0 mg/kg/injection, schedule: Q01DX005 (ip), vehicle: saline with Tween-80
[13] = dose: 50.0 mg/kg/injection, schedule: Q01DX005 (ip), vehicle: saline with Tween-80
[14] = dose: 50.0 mg/kg/injection, schedule: Q01DX009 (ip), vehicle: saline with Tween-80
[15] = dose: 100.0 mg/kg/injection, schedule: Q01DX009 (ip), vehicle: saline with Tween-80

Measured: T/C

Cc1cc(C)c(C#N)c(SC(C(=O)Nc2cc(C(F)(F)F)ccc2Cl)c2ccccc2)n1 (stereo not given)
inactive: [1] 90 % of control | [2] 89 % of control | [3] 89 % of control and 90 % of control | [4] 105 % of control | [5] 105 % of control

Cc1c(N)n[nH]c1-c1ccccc1
inactive: [6] 100 % of control | [7] 99 % of control | [8] 106 % of control

COc1cccc2c(NCCCCCCNc3c4ccccc4nc4c(OC)cccc34)c3ccccc3nc12
inactive: dose: 0.62 mg/kg/injection, schedule: Q## X009 (ip), vehicle: lactic acid 123 % of control | dose: 0.63 mg/kg/injection, schedule: Q01DX009 (ip), vehicle: other 102 % of control | dose: 1.25 mg/kg/injection, schedule: Q01DX009 (ip), vehicle: other 122 % of control | dose: 10.0 mg/kg/injection, schedule: Q## X009 (ip), vehicle: lactic acid 119 % of control
active: dose: 2.5 mg/kg/injection, schedule: Q## X009 (ip), vehicle: lactic acid 160 % of control | dose: 5.0 mg/kg/injection, schedule: Q## X009 (ip), vehicle: lactic acid 161 % of control

CCCCCCOc1cccc(OCCCC[N+]2(CC)CCCCC2)c1
inactive: dose: 1.56 mg/kg/injection, schedule: Q01DX009 (ip), vehicle: saline 96 % of control | dose: 3.12 mg/kg/injection, schedule: Q01DX009 (ip), vehicle: saline 105 % of control | dose: 6.25 mg/kg/injection, schedule: Q01DX009 (ip), vehicle: saline 91 % of control

CCN(CC)Cc1c(O)c(N=Nc2cccc3ccccc23)cc2ccccc12
inactive: dose: 3.0 mg/kg/injection, schedule: Q01DX009 (ip), vehicle: Klucel (hydroxypropylcellulose) (HPC) 111 % of control | dose: 6.0 mg/kg/injection, schedule: Q01DX009 (ip), vehicle: Klucel (hydroxypropylcellulose) (HPC) 107 % of control | dose: 12.0 mg/kg/injection, schedule: Q01DX009 (ip), vehicle: Klucel (hydroxypropylcellulose) (HPC) 104 % of control | dose: 12.5 mg/kg/injection, schedule: Q01DX009 (ip), vehicle: Klucel (hydroxypropylcellulose) (HPC) 113 % of control

CCOc1ccc(N=Nc2c(O)n(-c3ccccc3Cl)c(=S)n(-c3ccc(OC)cc3)c2=O)cc1
inactive: [6] 97 % of control | [7] 102 % of control | [8] 97 % of control

CCCCCCCCCCCCC[N+]1([O-])CCCCC1
inactive: dose: 12.5 mg/kg/injection, schedule: Q01DX009 (ip), vehicle: saline 95 % of control | dose: 25.0 mg/kg/injection, schedule: Q01DX009 (ip), vehicle: saline 92 % of control | [9] 87 % of control and 89 % of control

CC(C)(Sc1cc(Cl)c(Cl)c(Cl)c1)C(=O)OCCN1CCOCC1
inactive: [10] 101 % of control and 88 % of control | [11] 101 % of control | [12] 86 % of control and 94 % of control

Cn1cc(N)c2ccccc2c1=O
inactive: [13] 103 % of control

C1=Cc2ccccc2/C1=C/c1cc2c3c(c1)CCCN3CCC2
inactive: dose: 60.0 mg/kg/injection, schedule: Q01DX005 (ip), vehicle: Klucel (hydroxypropylcellulose) (HPC) 95 % of control | dose: 120.0 mg/kg/injection, schedule: Q01DX005 (ip), vehicle: Klucel (hydroxypropylcellulose) (HPC) 91 % of control | dose: 240.0 mg/kg/injection, schedule: Q01DX005 (ip), vehicle: Klucel (hydroxypropylcellulose) (HPC) 92 % of control

CCCCNC(=O)c1ccccc1C(=O)NC1(C(=O)NCCCC)CCCC1
inactive: [13] 101 % of control | dose: 100.0 mg/kg/injection, schedule: Q01DX005 (ip), vehicle: saline with Tween-80 97 % of control | dose: 200.0 mg/kg/injection, schedule: Q01DX005 (ip), vehicle: saline with Tween-80 93 % of control

CCN(CC)CCCC(C)Nc1cc(C)nc2ccc(N(C)C)cc12 (stereo not given)
inactive: dose: 15.0 mg/kg/injection, schedule: Q01DX005 (ip), vehicle: saline with Tween-80 108 % of control | dose: 30.0 mg/kg/injection, schedule: Q01DX005 (ip), vehicle: saline with Tween-80 105 % of control | [10] 100 % of control and 103 % of control

CSCCC(NC(=O)OCC1c2ccccc2-c2ccccc21)C(=O)O (stereo not given)
inactive: [3] 103 % of control | [4] 100 % of control

Cc1s/c(=N/N=C2\C(=O)C=Cc3ccccc32)n(O)c1C
inactive: dose: 50.0 mg/kg/injection, schedule: Q01DX009 (ip), vehicle: Klucel (hydroxypropylcellulose) (HPC) 99 % of control | dose: 100.0 mg/kg/injection, schedule: Q01DX009 (ip), vehicle: Klucel (hydroxypropylcellulose) (HPC) 108 % of control | dose: 200.0 mg/kg/injection, schedule: Q01DX009 (ip), vehicle: Klucel (hydroxypropylcellulose) (HPC) 111 % of control

O=C(CNC(=O)OCc1ccccc1)Oc1ccccc1[N+](=O)[O-]
inactive: [14] 94 % of control | [15] 100 % of control | dose: 200.0 mg/kg/injection, schedule: Q01DX009 (ip), vehicle: saline with Tween-80 111 % of control

COc1cc(C[C@H](CO)[C@H](CO)Cc2ccc3c(c2)OCO3)cc(OC)c1OC
inactive: dose: 12.5 mg/kg/injection, schedule: Q04DX002 (ip), vehicle: acetone 100 % of control | dose: 25.0 mg/kg/injection, schedule: Q04DX002 (ip), vehicle: acetone 102 % of control | dose: 50.0 mg/kg/injection, schedule: Q04DX002 (ip), vehicle: acetone 103 % of control

COC(=O)c1nc(N)nc(C(=O)OC)c1C(=O)c1ccc(N2CCN(c3ccc(C(=O)c4c(C(=O)OC)nc(N)nc4C(=O)OC)cc3)CC2)cc1
inactive: [10] 98 % of control | [11] 97 % of control | [12] 91 % of control

CN(C)C(=S)Oc1cc(-c2c(OC(=S)N(C)C)ccc3ccccc23)c2ccccc2c1
inactive: dose: 100.0 mg/kg/injection, schedule: Q04DX002 (ip), vehicle: saline with Tween-80 105 % of control | dose: 200.0 mg/kg/injection, schedule: Q04DX002 (ip), vehicle: saline with Tween-80 102 % of control | dose: 400.0 mg/kg/injection, schedule: Q04DX002 (ip), vehicle: saline with Tween-80 96 % of control

CN(C)C1=CC(=O)NC2CCCCC12 (stereo not given)
inactive: [3] 95 % of control | [4] 98 % of control | [5] 105 % of control

CCOC(=O)C(C(=O)OCC)C(C)(C)C
inactive: [9] 100 % of control | dose: 100.0 mg/kg/injection, schedule: Q01DX009 (ip), vehicle: saline 102 % of control | dose: 200.0 mg/kg/injection, schedule: Q01DX009 (ip), vehicle: saline 109 % of control | dose: 400.0 mg/kg/injection, schedule: Q01DX009 (ip), vehicle: saline 109 % of control

C[N+](C)(C)CC1CS1 (stereo not given)
inactive: dose: 4.5 mg/kg/injection, schedule: Q01DX009 (ip), vehicle: saline 104 % of control | dose: 9.0 mg/kg/injection, schedule: Q01DX009 (ip), vehicle: saline 95 % of control | dose: 18.0 mg/kg/injection, schedule: Q01DX009 (ip), vehicle: saline 100 % of control

CC(=O)CC(=O)c1ccccc1.CC(=O)CC(=O)c1ccccc1.[Ni]
inactive: dose: 3.0 mg/kg/injection, schedule: Q01DX009 (ip), vehicle: saline with Tween-80 106 % of control | dose: 6.0 mg/kg/injection, schedule: Q01DX009 (ip), vehicle: saline with Tween-80 98 % of control | dose: 12.0 mg/kg/injection, schedule: Q01DX009 (ip), vehicle: saline with Tween-80 99 % of control | dose: 12.5 mg/kg/injection, schedule: Q01DX009 (ip), vehicle: saline with Tween-80 91 % of control | dose: 24.0 mg/kg/injection, schedule: Q01DX009 (ip), vehicle: saline with Tween-80 99 % of control

C1=CN2CC(c3ccccc3)=NNC2c2ccccc21 (stereo not given)
inactive: dose: 100.0 mg/kg/injection, schedule: Q04DX002 (ip), vehicle: Klucel (hydroxypropylcellulose) (HPC) 107 % of control | dose: 200.0 mg/kg/injection, schedule: Q04DX002 (ip), vehicle: Klucel (hydroxypropylcellulose) (HPC) 99 % of control

CC1=[N+]([O-])[N+]([O-])=C(c2ccccc2)C1=O
inactive: dose: 25.0 mg/kg/injection, schedule: Q01DX009 (ip), vehicle: saline with Tween-80 107 % of control | [14] 92 % of control | [15] 107 % of control

CC1(C)CC(N2CCOCC2)=CC(=NCc2ccccc2)N1
inactive: [1] 107 % of control | [2] 99 % of control | [3] 100 % of control and 101 % of control
